Measurements reported in patent publication US20250154180A1, “CRK-LIKE (CRKL) ADAPTOR PROTEIN INHIBITORS AND METHODS OF MAKING AND USING THE SAME” (Rutgers, The State University of New Jersey, priority 2022, published 2025).

Experiments:
AML cell line (MoLM-13) = assay: CCK-8 cell viability, MoLM-13; assay type: cell-based, human; conditions: 1 uM, 5 uM, 10 uM; 48 hours
Description: In this example, activities of NC5, Compound III, and the known chemotherapeutic, Cytarabine, were evaluated in the AML cell line (MoLM-13). MoLM-13 cells were collected and seeded at 5,000 cells/well in 96-well plates. The cells were incubated for 24 hours before the addition of either DMSO control or drug at various concentrations. After an additional 48 hours of incubation, 3 μL of CCK-8 was added to every well and incubated at 37° C. for 3 hours. Absorbance was measured at 460 nm in a plate reader. […] The related absorbance was normalized and plotted as line graphs. p-values were determined through two tails student t-tests (*=p<0.5, **=p<0.01, ***=p<0.001).

[1] = test system: TNBC cells (MDA-231 and MDA-468); assay: Annexin V/PI apoptosis, TNBC (MDA-231 and MDA-468); assay type: cell-based; conditions: 1 uM, 24 hours
Description: Annexin V/PI Staining—Experimental cells were collected, washed with 1×PBS, resuspended in the binding buffer, and stained with an Annexin V-FITC assay Kit (Millipore Sigma). The cells were incubated with 50 μg/ml Annexin V in 1× binding buffer at room temperature for 15 minutes, then 10 μg/ml propidium iodide for another 15 minutes and analyzed by flow cytometry (EPICS XL). Annexin V-positive/PI-negative cells were considered early apoptotic, cells with both Annexin V and PI-positive to be late apoptotic, and Annexin V negative but PI-positive to be “necrotic.” The percent of apoptosis was calculated as the sum of the percentages of both early and late apoptotic cells.
To figure out the features of cytotoxic effects of Pomiferin on breast cancer cells. Pomiferin-treated breast cancer cells were stained with an Annexin V/PI kit and measured them with Flow Cytometry.

BXPC3 tumor = assay: PDAC BXPC3 xenograft model; assay type: in vivo, NSG mice
Description: For HCC or PDAC xenograft models, NSG mice 8-week-old) were injected subcutaneously with 1×10^6 HepG2 or BXPC3 tumor cells mixed with Matrigel.
To further test whether the tumor growth inhibition effect of NC5 applied to other solid tumors, the HCC-Sk-Hep1cell line and PDAC-BXPC3 cell line xenograft models were used. Subcutaneous injection of 1.5×10^6 SK-Hep1 or BXPC3 cells in NSG mice, Six-ten days after tumor cell injection, the palpable tumor in NSG mice was confirmed.

CrkL = CrkL (Homo sapiens, UniProt P46109); assay type: biochemical
From the text: Single-molecule Fluorescence Resonance Energy Transfer (smFRET)—Single-molecule Fluorescence Resonance Energy Transfer (smFRET) was applied to monitor conformations of single molecules. CrkL has two cysteines (a relatively rare amino acid), one in its SH2 and another in SH3C domains. CrkL was mixed with a mixture of equal amounts of Alexa555-maleimide and Alexa647-maleimide (Invitrogen, USA) (10× over protein concentration) to randomly label the two cysteines. The labeled protein was purified from an unreacted dye by gel filtration. Molecules with exactly one donor and acceptor are identified in single-molecule data analysis and used for further analysis. […] The FRET change between non-phosphorylated CrkL and phosphorylated CrkL was measured. The dye-labeled protein was used in in vitro kinase assays with different drugs treatments as described above. smFRET measurements were performed with a prism-type total internal refection microscope (TIRF) where FRET efficiency is calculated from measured donor and acceptor intensities (Id and Ia, respectively) by FRET=Ia/(Id+Ia), as described previously. To surface immobilize 6×His tagged CrkL, the protein was added to the biotinylated 6×His antibody (Thermo Scientific Cat #: MA1-80087) bound to streptavidin, which was adsorbed to a quartz slide. A lipid bilayer was used to passivate the quartz surface. Phosphorylation was performed on the immobilized Crk in situ.
In intramolecular smFRET, non-radiative energy transfer occurs when two fluorophores attached to different parts of one molecule move close together. […] A cysteine-maleimide-based chemistry was used to label both CrkL and mutant (non-phosphorylatable) CrkL-Y207F. CrkL has a cysteine (a relatively rare amino acid) in its SH2 (labeled with AlexaFluor555) and SH3C (labeled with AlexaFluor647). […] Western Blot (WB) and immunoprecipitation (IP) was used to verify that labeled proteins retain the same gross functional properties as wild-type CrkL (e.g., are phosphorylatable and capable of binding SH2 and SH3 ligands). Briefly, site-specific labeled CrkL was mixed with Ab1 in the presence of Mg^2+ and ATP. A single AlphaScreen-identified candidate inhibitor was then added per assay.

[2] = Mouse toxicity assays (serum ALT, AST, BUN, creatinine); assay type: in vivo, mice; conditions: mouse, in vivo
Description: Three mice were treated in each group. Blood samples were collected from every mouse in pre-treatment and post-treatment (20 days), and serum was obtained for alanine aminotransferase (ALT, SGPT, FIG. 12A), aspartate aminotransferase (AST, SGOT, FIG. 12B), blood urea nitrogen (BUN, FIG. 12C), and creatinine (FIG. 12D) tests to monitor liver and kidney toxicity. The normal Reference Ranges for ALT is 17-77 IU/L; AST is 54-298 IU/L; BUN is 18.5-33.3 mg/dL; Cr is 0-0.40 mg/dL.
Mouse toxicity assays—Blood was collected from the submandibular facial vein following IACUC guidelines (CMP, Houston Methodist Research Institute and Rutgers University) before and 20-day after the drug treatment. The Department of Veterinary Medicine & Surgery, MD Anderson Cancer Center, performed the clinical biochemistry and pharmacokinetics tests. Blood serum chemistry analysis included alanine transaminase (ALT), aspartate transaminase (AST), blood urea nitrogen (BUN), and creatinine level measurements.
Alanine aminotransferase (ALT, SGPT), aspartate aminotransferase (AST, SGOT), blood urea nitrogen (BUN), and creatinine levels were examined to determine liver and kidney toxicity of Pomiferin treatments in vivo. […] Nevertheless, these changes have no physiological significance because ALT, AST and BUN levels in all mice were within normal mouse reference ranges. […]

CrkL, sequence (P46109 whole entry, the tested form may be a part): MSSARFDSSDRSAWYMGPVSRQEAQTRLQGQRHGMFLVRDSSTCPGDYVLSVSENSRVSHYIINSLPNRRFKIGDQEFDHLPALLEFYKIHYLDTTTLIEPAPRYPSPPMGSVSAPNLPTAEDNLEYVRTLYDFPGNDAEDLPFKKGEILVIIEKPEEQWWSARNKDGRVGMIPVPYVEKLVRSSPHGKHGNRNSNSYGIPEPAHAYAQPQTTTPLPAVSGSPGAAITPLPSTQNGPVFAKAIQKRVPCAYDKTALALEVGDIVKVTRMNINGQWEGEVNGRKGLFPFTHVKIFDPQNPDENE

Compound: CC(C)=CCc1c2c(c3occ(-c4ccc(O)c(O)c4)c(=O)c3c1O)C=CC(C)(C)O2 [Pomiferin, 3′,4′,5-Trihydroxy-6″,6″-dimethyl-6-(3-methylbut-2-en-1-yl)-6″H-pyrano[2″,3″:7,8]isoflavone]
- cell viability (CCK-8) (AML cell line (MoLM-13)): decreased cell viability
- apoptosis [1]: significantly induced apoptosis
- median survival (BXPC3 tumor; 5.0 μg/g oral, vehicle 37 days): 43.5 days
- tumor growth (BXPC3 tumor; Pomiferin administered orally): suppressed
- median survival, fold longer than vehicle control (BXPC3 tumor; mouse, in vivo): 1.2 fold
- inhibition of the higher FRET caused by Ab1 (pCrkL) (CrkL; CrkL + Ab1, Mg2+ and ATP): 55%
- FRET signal (CrkL; CrkL about 0.4, CrkL+Ab1 about 0.6): 0.5
- damage to the liver and kidneys [2]: little to no damage to the liver and kidneys
